The values below come from ChEMBL document CHEMBL1201862, “PubChem BioAssay data set” (2004).

The source made the active and inactive calls. Cut-off read from the data, not from the text of the source, for most assays here: actives have a measured EC50 and inactives only a lower limit. Where only a bound is given, the exact number is not on record here.

The target of test [1] is T1, Heat shock factor protein 1 (Mus musculus, UniProt P38532).
T1 sequence (P38532 whole entry): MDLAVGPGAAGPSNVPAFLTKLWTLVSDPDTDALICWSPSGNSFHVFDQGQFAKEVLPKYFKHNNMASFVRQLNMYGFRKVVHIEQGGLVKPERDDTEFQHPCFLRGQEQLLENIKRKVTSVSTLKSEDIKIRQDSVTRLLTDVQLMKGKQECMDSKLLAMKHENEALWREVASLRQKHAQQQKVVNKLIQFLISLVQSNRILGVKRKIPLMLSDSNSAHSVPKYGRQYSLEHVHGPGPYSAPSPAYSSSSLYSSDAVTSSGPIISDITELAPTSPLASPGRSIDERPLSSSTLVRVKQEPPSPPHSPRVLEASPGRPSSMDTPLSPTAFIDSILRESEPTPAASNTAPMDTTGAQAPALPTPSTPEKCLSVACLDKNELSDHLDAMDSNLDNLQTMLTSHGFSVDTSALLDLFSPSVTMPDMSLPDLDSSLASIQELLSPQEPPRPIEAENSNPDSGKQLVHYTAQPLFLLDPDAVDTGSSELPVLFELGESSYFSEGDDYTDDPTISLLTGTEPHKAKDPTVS
Nature of the test: enhancement of HSF1-driven luciferase signal – cell-based, NIH3T3, luminescence, dose retest, confirmation (AID 435004).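 Note: stress induced by proteasome inhibitor MG132 added 30 min after compound; luciferase reporter driven by HSF1 response element in NIH3T3 cells; actives raise luminescence as potentiators of the MG132 stress response.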 Format: functional.

The target of test [2] is T2, Polyadenylate-binding protein 1 (Homo sapiens, UniProt P11940). Nature of the test: MLLE binding blockers, Cy5 peptide tracer – biochemical, fluorescence polarization, Cy5-PAM2 peptide, secondary, miRNA deadenylation inhibitor project, dose response (AID 602260). The settings on record: read-out: IC50_Mean. Type of test: functional. (Polarisation of emitted light reports the rotation of a fluorescent probe.)

In test [3] the target is T2, Polyadenylate-binding protein 1. Nature of the test: MLLE domain peptide-binding blockers, IC50 – biochemical, fluorescence polarization, FITC-PAM2 peptide, dose response (AID 602259). Format: functional. The settings on record: read-out: IC50_Mean.
Test [4] concerns Streptococcus sp. 'group A'. Nature of the test: Streptococcus pyogenes SK(-)GAS viability under kanamycin – luminescence, BacTiterGlo, confirmation, counter-screen for streptokinase expression inhibitor project, dose response (AID 1900). Type of test: functional, organism-based.
A further test deals with T3, Streptokinase A (Streptococcus pyogenes serotype M1, UniProt P10520).
T3 sequence (P10520 whole entry): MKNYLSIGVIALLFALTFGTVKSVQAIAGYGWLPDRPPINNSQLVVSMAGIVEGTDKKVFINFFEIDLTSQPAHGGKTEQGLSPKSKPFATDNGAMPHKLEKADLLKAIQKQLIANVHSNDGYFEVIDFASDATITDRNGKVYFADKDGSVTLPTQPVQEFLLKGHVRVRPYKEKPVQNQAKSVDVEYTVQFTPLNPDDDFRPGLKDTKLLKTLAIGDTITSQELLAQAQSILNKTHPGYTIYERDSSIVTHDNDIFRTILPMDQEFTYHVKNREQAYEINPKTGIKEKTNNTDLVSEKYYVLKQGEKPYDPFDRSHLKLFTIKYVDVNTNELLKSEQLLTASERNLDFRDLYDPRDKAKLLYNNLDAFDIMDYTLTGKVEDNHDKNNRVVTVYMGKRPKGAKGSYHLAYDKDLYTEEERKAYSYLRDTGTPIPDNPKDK
Nature of the test: viability-normalized secreted streptokinase activity reduction – plasminogen activation absorbance, OD405, dose response (AID 1914).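 Note: secreted streptokinase activity via plasminogen activation per viability signal from cell pellet.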 Format: functional, Streptococcus pyogenes M1 GAS.

The next test has as its system Streptococcus. Nature of the test: GAS UMAA2166 growth inhibition – luminescence, BacTiterGlo, counter-screen for streptokinase expression inhibitor project, dose response (AID 1915).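 Note: potency for reduction of bacterial viability or growth.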 Type of test: functional, organism-based.
In test [5] the target is FAD-linked sulfhydryl oxidase ALR (Homo sapiens, UniProt P55789). Nature of the test: ALR-catalysed DTT oxidation blockers – biochemical, H2O2 detection, luminescence, cherry-pick, dose response (AID 493248).
In test [6] the target is Induced myeloid leukemia cell differentiation protein Mcl-1 (Homo sapiens, UniProt Q07820). Type of test: functional.
Test [7] is described as follows: cells. Format: functional, cell-based.
Test [8] is described as follows: cells. Type of test: functional, cell-based. The source holds these as a separate data set.
The nature of test [9]: Trypanosoma cruzi growth suppression in host cells – NIH3T3 host cells, beta-gal luminescence, confirmation (AID 2044).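 Note: intracellular parasites grown in NIH/3T3 mouse fibroblasts as host cells; luminescent beta-galactosidase reporter signal from transgenic T. cruzi replicating inside host cells; inhibitors lower the luminescence signal.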 Type of test: functional, cell-based.
A short description of test [10]: NIH3T3 cell viability loss – ATP luminescence, mouse fibroblasts, counter-screen, dose response (AID 2010).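 Note: cells exposed to compound for about 90 hours before reading.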 Format: functional, cell-based.
A short description of test [11]: Luminescence Cell-Based Dose Retest to Confirm Inhibitors of Cancer Stem Cells. [Related pubchem assays (depositor defined):AID2717, AID2721]. Type of test: functional. The settings on record: Homo sapiens.
For test [12], the system named is BJ. Nature of the test: BJ-TERT fibroblast viability loss – cell-based, RAS-independent, luminescence, dose response (AID 1933). Format: functional. The following applies: Homo sapiens.
In test [13] the test system is BJ. Nature of the test: cells. Format: functional, cell-based. The following applies: Homo sapiens.
For test [14], the system named is BJ. Nature of the test: BJ-TERT-LT-ST fibroblast viability loss – cell-based, RAS-independent, luminescence, dose response (AID 1935).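 Note: BJ fibroblasts immortalized with TERT plus LT and ST oncogenes.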 Type of test: functional. The following applies: Homo sapiens.
Test [15] in a line: DRD fibroblast viability loss – cell-based, non-viral oncogenic, luminescence, dose response (AID 1934). The following applies: Homo sapiens. Type of test: functional.
A further test has as its system Vero. Nature of the test: cells. Type of test: functional. The settings on record: Chlorocebus sabaeus.
For test [16], the target named is Luciferin 4-monooxygenase (Photinus pyralis, UniProt P08659). Nature of the test: inhibition of purified Photinus pyralis luciferase – biochemical, luminescence, dose response (AID 1891).
Test [17] can be described thus: Luminescence Cell-Based Dose Confirmation HTS to Identify Inhibitors of Platelet Dense Granule Release. [Related pubchem assays: 1663 (Primary HTS), 1678 (Summary of Project)]. Format: functional.
A further test deals with Paired box protein Pax-8 (Homo sapiens, UniProt Q06710). Nature of the test: PAX8 transcriptional activity inhibition in RMG-I – RMG-I cells, luciferase, cherry-pick, dose response (AID 687027).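 Note: luciferase reporter driven by Pax8 target thyroperoxidase promoter measured by SteadyGlo luminescence.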 Type of test: functional, cell-based.
A short description of test [18]: Luminescence Cell-Based Dose Confirmation HTS to Identify Activators of 5'UTR Stem-Loop Driven Alpha-Synuclein mRNA Translation in H4 Neuroglioblastoma Cells. [Related pubchem assays: 1829 (Project Summary), 1814 (Primary HTS)]. Format: functional.
Test [19] is described as follows: Luminescence Cell-Based Dose Response HTS to Identify Activators of Luciferase Translation or Activity in H4 […] Cells. [Related pubchem assays: 1829 (Project Summary), 1814 (Primary HTS)]. Format: functional.
The subject of the next test is H4. Nature of the test: Luminescence Cell-Based Dose Response HTS to Identify Activators of 5'UTR Stem-Loop Driven Prion Protein mRNA Translation in H4 Neuroglioblastoma Cells. [Related pubchem assays: 1829 (Project Summary), 1814 (Primary HTS)]. Type of test: functional. The settings on record: Homo sapiens.

T2 sequence (P11940 whole entry): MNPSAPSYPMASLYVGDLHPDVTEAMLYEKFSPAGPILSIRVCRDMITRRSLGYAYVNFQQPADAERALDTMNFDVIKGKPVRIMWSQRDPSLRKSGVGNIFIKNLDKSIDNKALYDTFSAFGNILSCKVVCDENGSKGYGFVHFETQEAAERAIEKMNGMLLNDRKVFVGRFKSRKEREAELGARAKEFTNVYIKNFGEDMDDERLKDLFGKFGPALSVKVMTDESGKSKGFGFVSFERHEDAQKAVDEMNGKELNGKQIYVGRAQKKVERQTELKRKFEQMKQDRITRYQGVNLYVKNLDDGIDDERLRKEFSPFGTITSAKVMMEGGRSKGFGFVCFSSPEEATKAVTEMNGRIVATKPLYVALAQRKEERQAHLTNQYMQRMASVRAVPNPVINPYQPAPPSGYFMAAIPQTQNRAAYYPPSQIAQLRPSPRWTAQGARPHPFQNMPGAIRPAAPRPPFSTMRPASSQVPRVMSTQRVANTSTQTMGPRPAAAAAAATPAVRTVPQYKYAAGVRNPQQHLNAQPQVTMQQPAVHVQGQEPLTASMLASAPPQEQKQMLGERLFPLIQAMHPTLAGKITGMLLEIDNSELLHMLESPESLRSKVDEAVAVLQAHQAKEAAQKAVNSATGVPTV
Induced myeloid leukemia cell differentiation protein Mcl-1, sequence (Q07820 whole entry): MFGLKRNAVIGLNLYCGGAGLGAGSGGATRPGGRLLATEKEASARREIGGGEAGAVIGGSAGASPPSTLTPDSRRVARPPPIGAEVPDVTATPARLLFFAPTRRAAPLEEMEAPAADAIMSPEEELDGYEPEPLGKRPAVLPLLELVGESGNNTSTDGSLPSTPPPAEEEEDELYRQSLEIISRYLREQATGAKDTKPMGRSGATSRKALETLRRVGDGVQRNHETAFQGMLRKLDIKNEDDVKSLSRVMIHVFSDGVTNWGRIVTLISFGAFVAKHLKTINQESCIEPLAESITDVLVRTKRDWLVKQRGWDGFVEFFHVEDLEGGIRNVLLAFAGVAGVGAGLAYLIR
FAD-linked sulfhydryl oxidase ALR, sequence (P55789 whole entry): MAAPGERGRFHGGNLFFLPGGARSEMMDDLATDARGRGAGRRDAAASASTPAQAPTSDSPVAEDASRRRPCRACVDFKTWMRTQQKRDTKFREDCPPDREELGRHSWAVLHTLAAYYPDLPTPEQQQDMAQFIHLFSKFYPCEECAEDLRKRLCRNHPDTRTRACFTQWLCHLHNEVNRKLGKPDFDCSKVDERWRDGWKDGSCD
Paired box protein Pax-8, sequence (Q06710 whole entry): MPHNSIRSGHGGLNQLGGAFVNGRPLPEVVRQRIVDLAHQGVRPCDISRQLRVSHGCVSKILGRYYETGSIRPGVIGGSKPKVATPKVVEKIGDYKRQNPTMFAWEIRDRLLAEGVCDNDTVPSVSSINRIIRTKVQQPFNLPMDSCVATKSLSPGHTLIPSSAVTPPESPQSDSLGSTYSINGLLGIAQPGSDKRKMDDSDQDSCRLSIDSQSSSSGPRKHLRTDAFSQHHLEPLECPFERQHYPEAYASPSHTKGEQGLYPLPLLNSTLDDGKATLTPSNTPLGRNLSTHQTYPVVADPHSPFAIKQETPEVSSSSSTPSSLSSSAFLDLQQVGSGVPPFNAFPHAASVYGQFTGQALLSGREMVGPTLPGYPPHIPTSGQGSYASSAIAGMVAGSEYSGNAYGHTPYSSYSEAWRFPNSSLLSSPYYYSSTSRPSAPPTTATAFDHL
Luciferin 4-monooxygenase, sequence (P08659 whole entry): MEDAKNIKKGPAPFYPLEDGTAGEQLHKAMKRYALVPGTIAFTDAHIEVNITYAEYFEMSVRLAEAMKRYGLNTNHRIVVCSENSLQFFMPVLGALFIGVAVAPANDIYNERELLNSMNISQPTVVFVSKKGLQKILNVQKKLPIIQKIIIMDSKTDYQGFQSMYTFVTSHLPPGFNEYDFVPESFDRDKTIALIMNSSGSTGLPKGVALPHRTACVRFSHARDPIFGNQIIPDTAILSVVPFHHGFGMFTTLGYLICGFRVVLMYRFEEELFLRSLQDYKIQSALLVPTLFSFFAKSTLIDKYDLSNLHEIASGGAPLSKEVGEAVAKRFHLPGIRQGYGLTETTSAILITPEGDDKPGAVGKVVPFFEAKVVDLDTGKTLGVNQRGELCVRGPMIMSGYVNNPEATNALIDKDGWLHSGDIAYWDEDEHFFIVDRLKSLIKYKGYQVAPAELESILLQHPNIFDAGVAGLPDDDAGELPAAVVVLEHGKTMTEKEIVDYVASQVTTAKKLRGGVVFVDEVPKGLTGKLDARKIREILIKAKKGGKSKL

As for `CCOC(=S)SCC(=O)N1CCc2cc(OC)c(OC)cc2C1C1C(=O)CC(C)(C)CC1=O` (configuration not stated), the EC50 in test [1] was > 260 µM (inactive).
Consider `O=C(CC(Sc1ccccc1)c1cccs1)c1ccco1` (configuration not stated), for which the IC50 in [2] and in test [3] was > 66 µM (inactive) each time.
Take `CCCc1ccc(-c2cc(N)[nH]n2)cc1`: the figures for the EC50 (in test [4]; at Streptokinase A; in the test with Streptococcus) were 30.9 µM (active), > 150 µM (not active) and > 150 µM (not active), respectively. Also, the AC50 in test [5] was 11.3 µM (active).
Regarding `CCC(C)NCCCOc1c(C)cc(C)cc1Br` (configuration not stated), the IC50 in test [6] is 6.63 µM (not active).
`COC(=O)c1cn(NC(=O)C2CCC(C)CC2)c(=O)c2ccccc12` (configuration not stated): in [1], the EC50 was > 260 µM (inactive).
With `CN(C1CCCC1)C1CCN(C(S)=Nc2cc(F)cc(F)c2)CC1`, the EC50 in the test “cells [7]” and in “cells [8]” was > 350 µM (not active) each time.
Take `COc1cc(SC)ccc1C(=O)NCCc1ccccc1`: the EC50 is > 350 µM (not active) in the test “cells [7]” and 18.9 µM (active) in the test “cells [8]”.
On to `Cc1cc2oc(=O)cc(CNc3ccccc3F)c2cc1O`, for which the EC50 was 9.59 µM (active) in [4]; 51.2 µM (active) on Streptokinase A; 1.81 µM (active) in [9]; > 60 µM (not active) in test [10]; > 150 µM (not active) in the test with Streptococcus.
Regarding `Nc1cc(-c2ccc(OC(F)(F)F)cc2)nn1-c1ccc(Cl)c(Cl)c1`, the EC50 in test [4] was 6.98 µM (active); at Streptokinase A, 20 µM (inconclusive); in the test with Streptococcus it was 11.6 µM (active). The AC50 in test [11] was 4.74 µM (active).
For `Cc1cc(Oc2ccccc2)nc(N2CCOCC2)n1`, the EC50 in the test “cells [7]” and in “cells [8]” was > 350 µM (not active) in each case.
Consider `Cc1ccc(C(=O)CNc2cccc([N+](=O)[O-])c2)cc1`, for which the IC50 in [2] and in test [3] was > 66 µM (inactive) throughout.
With `O=S(=O)(c1cc(Cl)ccc1Cl)N1CC2CCCN2c2ccc(C(F)(F)F)cc21` (configuration not stated), in [1], the EC50 is > 260 µM (inactive).
In the case of `COc1ccc(NC(=O)CSc2nnc(NC(C)=O)s2)c([N+](=O)[O-])c1`, the IC50 in [2] and in [3] was > 66 µM (inactive) in each case.
As to `CCc1ccc(N(C(=O)c2snc(C(N)=O)c2N)C(C(=O)NCCC(C)C)c2c[nH]c3ccccc23)cc1` (configuration not stated), the EC50 in [1] is 139 µM (active).
With `COC(=O)/C(C#N)=C/c1c(N2CCN(Cc3ccc4c(c3)OCO4)CC2)nc2c(C)cccn2c1=O`, the EC50 in the test “cells [7]” and in “cells [8]” was > 350 µM (not active) throughout.
Consider `CC(C)OC(=O)c1c2nc3ccccc3nc2n2c1nc(O)c1ccccc12`, for which the EC50 in test [4] is 1.24 µM (active); at Streptokinase A, > 150 µM (not active); with Streptococcus, 39.6 µM (active).
As to `COc1ccc(C=C2c3ccccc3C(=O)c3ccccc32)c(OC)c1`, the EC50 was 2.8 µM (inconclusive) in the test on BJ [12], 2.33 µM (inconclusive) with BJ [13], 18.3 µM (inconclusive) in the test on BJ [14] and 2.6 µM (active) in test [15]. In addition, in the test on Vero, the CC50 is < 0.05 µM (active).
For `COC(=O)c1ccc(Cl)c(NC(=O)CSc2nnc(-c3ccncc3)o2)c1`, the EC50 (in test [4]; at Streptokinase A; in the test on Streptococcus) was > 150 µM (not active) in each case.
On to `COc1ccc(C(=O)NC2CCN(C(S)=NCc3ccco3)CC2)cc1`, for which, in test [1], the EC50 was > 260 µM (inactive).
For the molecule `CN(C)CCOC1(Cc2ccc(F)cc2)CCC(C(C)(C)C)CC1` (configuration not stated), the half-maximal cytotoxic concentration (CC50) in the test with Vero was > 25 µM (active).
As to `COc1ccc(OC(=O)N2C/C(=C/c3ccccc3)C(=O)/C(=C\c3ccccc3)C2)cc1`, in the test with Vero, the CC50 is 9.88 µM (active).
For the molecule `Fc1cccc(/C=N/Nc2nccnc2Cl)c1`, the EC50 with BJ [12] is 11.9 µM (active); in the test “cells [7]”, > 350 µM (not active); in the test with BJ [13], 11 µM (active); in test [16], 3.81 µM (active); in test [17], 2.26 µM (active); in the test “cells [8]”, 7.47 µM (active). Further, the EC50 is > 75 µM (inconclusive) in the test on BJ [14] and 11.3 µM (active) in test [15].
As for `C[C@@H]1CCCCO[C@@H](CN(C)C(=O)C2CCCCC2)[C@H](C)CN([C@H](C)CO)C(=O)c2cc(NS(=O)(=O)c3ccc(Cl)cc3)ccc2O1`, on Paired box protein Pax-8, the AC50 was 4.99 µM (active).
For `COc1ccc2o/c(=N\O)c(C(=O)Nc3ccc(C)cc3)cc2c1`, the EC50 was 16.6 µM (active) in test [18], 14.1 µM (active) in [19] and 15.2 µM (active) in the test on H4. Further, in the test with Vero, the CC50 was > 25 µM (active).
With `COc1ccc(/N=C2/C(=N\c3ccc(OC)cc3)N(c3ccc(OC)cc3)C(=S)N2C(=O)c2ccc(OC)cc2)cc1`, the EC50 in test [1] is > 260 µM (inactive).
For the molecule `COc1cccc(C2C3=C(N=c4s/c(=C\c5ccccc5O)c(=O)n42)c2ccccc2CC3)c1OC` (configuration not stated), the EC50 in “cells [7]” and in “cells [8]” was > 350 µM (not active) throughout.

The EC50 is the midpoint of the concentration-response curve. The term AC50 denotes the midpoint of the concentration-response curve, whichever way the signal moves. What is called CC50 is the concentration giving 50% cytotoxicity.
